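All cell lines were grown in 96-well plates and treated with compound for 48 hours. GI50 marks 50% less growth. Definition used: TGI = concentration required for complete inhibition of growth.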 A value given as a limit tells only on which side of the number the result lay.

Test systems include M14 melanoma; COLO 205 colon; BT-549 breast; ACHN renal; DU-145 prostate; SK-OV-3 ovarian; MDA-MB-231 breast; OVCAR-8 ovarian; UACC-257 melanoma; A549 NSCLC.
Common to all, as to experiment: growth of human tumour cells (NCI), 48 h

Take `O=C(Nc1ccncc1)C(=O)c1cn(S(=O)(=O)c2ccc(Br)cc2)c2ccccc12`: the GI50 was 5.74 µM in the experiment with M14 melanoma; 27.7 µM in the experiment on COLO 205 colon; 11.8 µM in the experiment on BT-549 breast; 9.13 µM in the experiment on ACHN renal; 19 µM in the experiment with DU-145 prostate; 19.9 µM with SK-OV-3 ovarian. The GI50 in the experiment on MDA-MB-231 breast was 10.2 µM; in the experiment on OVCAR-8 ovarian it was 5.9 µM; in the experiment on UACC-257 melanoma it was 7.62 µM; in the experiment with A549 NSCLC, 15.6 µM. The TGI in the experiment with M14 melanoma, in the experiment on COLO 205 colon, in the experiment on BT-549 breast, with ACHN renal, in the experiment on DU-145 prostate and in the experiment on SK-OV-3 ovarian was over 100 µM each time. For the same compound, the TGI in the experiment on MDA-MB-231 breast was 83 µM; in the experiment with OVCAR-8 ovarian, over 100 µM; in the experiment with UACC-257 melanoma, over 100 µM; with A549 NSCLC, over 100 µM.
In the case of `CCCCCCCCCCCCCCCCCCNC(=O)[C@H]1CSC(c2ccc(OC)c(F)c2)N1` (stereo not given in full), the GI50 in the experiment with M14 melanoma was 1.43 µM; with COLO 205 colon, over 39.1 µM; in the experiment with BT-549 breast, 1.71 µM; with ACHN renal, over 36.8 µM; in the experiment on DU-145 prostate, 24.2 µM; in the experiment with SK-OV-3 ovarian, over 42 µM. The GI50 with MDA-MB-231 breast is 1.9 µM; in the experiment with OVCAR-8 ovarian, 2.56 µM; in the experiment on UACC-257 melanoma, over 19.9 µM; with A549 NSCLC, 9.87 µM. The TGI in the experiment on M14 melanoma was 3.5 µM; in the experiment with COLO 205 colon, over 60.5 µM; in the experiment on BT-549 breast, 4.04 µM; in the experiment with ACHN renal, over 52.1 µM; in the experiment on DU-145 prostate, over 54.6 µM; in the experiment with SK-OV-3 ovarian, over 58 µM. Also, the TGI with MDA-MB-231 breast is 5.16 µM; in the experiment on OVCAR-8 ovarian, 11.4 µM; in the experiment on UACC-257 melanoma, over 44.1 µM; in the experiment on A549 NSCLC, 38.1 µM.
On to `O=C1/C(=C\c2ccc(Cl)cc2)CN(C(=S)Nc2ccccc2)C/C1=C\c1ccc(Cl)cc1`, for which the GI50 was 1.7 µM with M14 melanoma; 0.507 µM with COLO 205 colon; 0.6 µM with BT-549 breast; 1.22 µM with ACHN renal; 1.11 µM in the experiment on DU-145 prostate; 2.03 µM in the experiment with SK-OV-3 ovarian. For the same compound, the GI50 was 0.735 µM in the experiment on MDA-MB-231 breast, 0.527 µM in the experiment on OVCAR-8 ovarian, 1.83 µM in the experiment with UACC-257 melanoma and 0.415 µM in the experiment on A549 NSCLC. For the same compound, the TGI with M14 melanoma stood at 4.2 µM; with COLO 205 colon, 1.84 µM; with BT-549 breast, 1.77 µM; in the experiment with ACHN renal, 2.65 µM; with DU-145 prostate, 3.48 µM; in the experiment with SK-OV-3 ovarian it was 4.86 µM. Moreover, the TGI was 5.44 µM in the experiment with MDA-MB-231 breast, over 47.9 µM with OVCAR-8 ovarian, 3.78 µM in the experiment on UACC-257 melanoma and 10.3 µM with A549 NSCLC.
With `CC(=O)c1ccc(Nc2cc(-n3ccnc3)nc3ccccc23)cc1`, the GI50 in the experiment with M14 melanoma was 8.15 µM; with COLO 205 colon, over 100 µM; in the experiment on BT-549 breast, over 100 µM; in the experiment with ACHN renal it was 48.4 µM; in the experiment with DU-145 prostate it was over 100 µM; with SK-OV-3 ovarian, over 100 µM. Also, the GI50 in the experiment on MDA-MB-231 breast is 3.64 µM; in the experiment on OVCAR-8 ovarian, 50.5 µM; in the experiment with UACC-257 melanoma, 33.4 µM; with A549 NSCLC, 35.3 µM. For the same compound, the TGI is 52 µM with M14 melanoma; over 100 µM in the experiment on COLO 205 colon; over 100 µM in the experiment on BT-549 breast; over 100 µM in the experiment with ACHN renal; over 100 µM in the experiment with DU-145 prostate; over 100 µM in the experiment with SK-OV-3 ovarian. In addition, the TGI with MDA-MB-231 breast is 18.1 µM; with OVCAR-8 ovarian, over 100 µM; in the experiment with UACC-257 melanoma it was over 100 µM; in the experiment with A549 NSCLC, over 100 µM.
For `CCOC(=O)c1cnc(SCc2ccc(Cl)c(Cl)c2)nc1N1CC1`, the GI50 with M14 melanoma is 2.89 µM; in the experiment on COLO 205 colon, 2.9 µM; with BT-549 breast, 2.88 µM; in the experiment with ACHN renal it was 3.12 µM; in the experiment on DU-145 prostate it was 2.98 µM; in the experiment with SK-OV-3 ovarian, 2.85 µM. For the same compound, the GI50 was 6.12 µM with MDA-MB-231 breast, 3.6 µM in the experiment on OVCAR-8 ovarian, 4.78 µM with UACC-257 melanoma and 3.72 µM with A549 NSCLC. For the same compound, the TGI in the experiment with M14 melanoma was found to be 11.7 µM; in the experiment with COLO 205 colon, 13.2 µM; with BT-549 breast, 13.6 µM; in the experiment with ACHN renal, 13.2 µM; in the experiment on DU-145 prostate it was 9.73 µM; in the experiment with SK-OV-3 ovarian it was 10.4 µM. Also, the TGI in the experiment on MDA-MB-231 breast amounted to 27.2 µM; with OVCAR-8 ovarian, 30.2 µM; with UACC-257 melanoma, 19.8 µM; in the experiment with A549 NSCLC, 16.1 µM.
On to `C[C@H]1[C@H](OC(=O)CCC(=O)O)O[C@@H]2O[C@]3(C)CC[C@H]4[C@H](C)CC[C@@H]1[C@@]24OO3`, for which the GI50 with M14 melanoma was 0.777 µM; in the experiment with COLO 205 colon it was 0.341 µM; in the experiment with BT-549 breast, 0.292 µM; in the experiment with ACHN renal, 0.921 µM; with DU-145 prostate, 6.48 µM; with SK-OV-3 ovarian it was 16.7 µM. For the same compound, the GI50 in the experiment with MDA-MB-231 breast was 2.34 µM; in the experiment with OVCAR-8 ovarian it was 0.445 µM; in the experiment on UACC-257 melanoma, 3.36 µM; with A549 NSCLC, 0.959 µM. Moreover, the TGI with M14 melanoma is 14.8 µM; in the experiment with COLO 205 colon, 1.37 µM; in the experiment with BT-549 breast it was 4.55 µM; in the experiment on ACHN renal, 14.4 µM; with DU-145 prostate, 20.1 µM; with SK-OV-3 ovarian, over 89 µM. The TGI in the experiment on MDA-MB-231 breast is 35.4 µM; in the experiment with OVCAR-8 ovarian it was over 46.4 µM; in the experiment on UACC-257 melanoma, over 100 µM; in the experiment on A549 NSCLC, 18.3 µM.
`CC1(C)CC(=O)C2=C(C1)NC(SSC1=C(C#N)C(c3ccccc3)C3=C(CC(C)(C)CC3=O)N1)=C(C#N)C2c1ccccc1` (stereo not given): the GI50 is 22.5 µg/mL in the experiment with M14 melanoma; 29.5 µg/mL with COLO 205 colon; 27.6 µg/mL with BT-549 breast; 26.1 µg/mL in the experiment with ACHN renal; 44.7 µg/mL in the experiment with DU-145 prostate; 22.9 µg/mL with SK-OV-3 ovarian. Further, the GI50 in the experiment with MDA-MB-231 breast is 23.4 µg/mL; in the experiment on OVCAR-8 ovarian, 31.6 µg/mL; with UACC-257 melanoma it was 25.4 µg/mL; in the experiment with A549 NSCLC it was 50.5 µg/mL. For the same compound, the TGI was determined as 43.6 µg/mL in the experiment on M14 melanoma; 51.5 µg/mL with COLO 205 colon; 48.6 µg/mL with BT-549 breast; 46.8 µg/mL in the experiment on ACHN renal; 126 µg/mL in the experiment on DU-145 prostate; 59 µg/mL in the experiment with SK-OV-3 ovarian. Further, the TGI was 45.1 µg/mL in the experiment on MDA-MB-231 breast, 57.4 µg/mL in the experiment with OVCAR-8 ovarian, 46 µg/mL with UACC-257 melanoma and over 150 µg/mL with A549 NSCLC.

Values taken from PubChem BioAssay (NCI).
